This note sets out measurements from patent US11339120B2, “Phenyl derivatives as cannabinoid receptor 2 agonists” (priority 2015, dated 2022).

Read-outs that look alike come from different tables or passages of the source.

For one test, the target named is T1, human CB1 receptors (Homo sapiens, UniProt P21554).
T1 construct: expressed in transfected cells; host or cells: CHO cells
In words: functional cAMP assay, CHO cells expressing human CB1. The class given is cell-based. Here is the method:
(§1) CHO cells expressing human CB1 or CB2 receptors are seeded 17-24 hours prior to the experiment 50.000 cells per well in a black 96 well plate with flat clear bottom (Corning Costar #3904) in DMEM (Invitrogen No. 31331), 1×HT supplement, with 10% fetal calf serum and incubated at 5% CO2 and 37° C. in a humidified incubator. The growth medium was exchanged with Krebs Ringer Bicarbonate buffer with 1 mM IBMX and incubated at 30° C. for 30 min. Compounds were added to a final assay volume of 100 μl and incubated for 30 min at 30° C. Using the cAMP-Nano-TRF detection kit the assay (Roche Diagnostics) was stopped by the addition of 50 μl lysis reagent (Tris, NaCl, 1.5% Triton X100, 2.5% NP40, 10% NaN3) and 50 μl detection solutions (20 μM mAb Alexa700-cAMP 1:1, and 48 μM Ruthenium-2-AHA-cAMP) and shaken for 2 h at room temperature. The time-resolved energy transfer is measured by a TRF reader (Evotec Technologies GmbH), equipped with a ND:YAG laser as excitation source. The plate is measured twice with the excitation at 355 nm and at the emission with a delay of 100 ns and a gate of 100 ns, total exposure time 10 s at 730 (bandwidth 30 nm) or 645 nm (bandwidth 75 nm), respectively. The FRET signal is calculated as follows: FRET=T730-Alexa730-P(T645-B645) with P=Ru730-B730/Ru645-B645, where T730 is the test well measured at 730 nM, T645 is the test well measured at 645 nm, B730 and B645 are the buffer controls at 730 nm and 645 nm, respectively. cAMP content is determined from the function of a standard curve spanning from 10 μM to 0.13 nM cAMP.
(§2) EC50 values were determined using Activity Base analysis (ID Business Solution, Limited). The EC50 values for a wide range of cannabinoid agonists generated from this assay were in agreement with the values published in the scientific literature.

Another test deals with T2, human CB2 receptors (Homo sapiens, UniProt P34972).
T2 construct: expressed in transfected cells; host or cells: CHO cells
In words: functional cAMP assay, CHO cells expressing human CB2. The class given is cell-based. Here is the method: as §1, §2

Where [1] appears, read: functional cAMP assay, CHO cells expressing human CB2, read-out: Human CB2 EC50.

T1 sequence (P21554 whole entry): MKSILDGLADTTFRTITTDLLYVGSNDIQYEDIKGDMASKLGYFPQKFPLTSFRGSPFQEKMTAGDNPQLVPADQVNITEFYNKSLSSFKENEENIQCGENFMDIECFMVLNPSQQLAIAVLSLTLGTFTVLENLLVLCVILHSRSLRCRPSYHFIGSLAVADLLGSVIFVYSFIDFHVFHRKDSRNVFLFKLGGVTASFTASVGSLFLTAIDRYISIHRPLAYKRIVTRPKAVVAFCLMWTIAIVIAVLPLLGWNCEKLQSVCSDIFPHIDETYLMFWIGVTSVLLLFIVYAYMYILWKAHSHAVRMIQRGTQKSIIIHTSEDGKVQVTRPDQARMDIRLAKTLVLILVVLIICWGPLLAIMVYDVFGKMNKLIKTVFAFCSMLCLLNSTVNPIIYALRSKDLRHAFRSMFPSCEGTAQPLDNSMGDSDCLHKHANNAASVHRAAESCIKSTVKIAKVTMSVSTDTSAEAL
T2 sequence (P34972 whole entry): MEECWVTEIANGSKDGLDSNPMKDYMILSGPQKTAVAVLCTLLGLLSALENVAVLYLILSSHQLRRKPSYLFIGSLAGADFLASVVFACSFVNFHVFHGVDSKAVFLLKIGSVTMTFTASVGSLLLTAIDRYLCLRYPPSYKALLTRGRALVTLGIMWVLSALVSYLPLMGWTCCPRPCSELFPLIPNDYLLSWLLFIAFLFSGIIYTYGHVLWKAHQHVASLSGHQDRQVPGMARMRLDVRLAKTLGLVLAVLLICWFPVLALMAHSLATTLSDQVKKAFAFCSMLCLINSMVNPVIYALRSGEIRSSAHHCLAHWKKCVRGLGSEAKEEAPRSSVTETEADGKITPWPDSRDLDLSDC

`C[C@@](CC(N)=O)(NC(=O)c1ccc(C2CC2)c(OCC(F)(F)F)c1)C1CC1` (single isomer, unassigned) [Example 35, (−)-N-[4-Amino-2-cyclopropyl-4-oxobutan-2-yl]-4-cyclopropyl-3-(2,2,2-trifluoroethoxy)benzamide]: the EC50 on human CB1 receptors was over 10 µM; at human CB2 receptors, 0.00856 µM.

For `Cc1nc([C@](C)(CC2CC2)NC(=O)c2ccc(C3CC3)c(OC(C)C)c2)no1` (single isomer, unassigned) [Example 38, 4-Cyclopropyl-N-[(2S)-1-cyclopropyl-2-(5-methyl-1,2,4-oxadiazol-3-yl)propan-2-yl]-3-[(propan-2-yl)oxy]benzamide or enantiomer], the results for the EC50 at human CB1 receptors and at human CB2 receptors were over 10 µM and 0.0266 µM, respectively.

Consider `Cc1ccc(C(=O)N[C@@H](CC(C)C)C(N)=O)cc1OCC1CC1` [Example 1, N-[(2S)-1-amino-4-methyl-1-oxopentan-2-yl]-3-(cyclopropylmethoxy)-4-methylbenzamide], for which the EC50 at human CB1 receptors is over 10 µM; on human CB2 receptors (setting [1]), 0.136 µM.

For `Cc1nc(C(C)(C)NC(=O)c2ccc(C)c(OCC3CC3)c2)no1` [Example 2, 3-(Cyclopropylmethoxy)-4-methyl-N-[2-(5-methyl-1,2,4-oxadiazol-3-yl)propan-2-yl]benzamide], the figures for the EC50 on human CB1 receptors and on human CB2 receptors (setting [1]) were over 10 µM and 0.492 µM, respectively.

In the case of `Cc1nc(C(C)(C)NC(=O)c2ccc(C3CC3)c(OCC3CC3)c2)no1` [Example 3, 4-Cyclopropyl-3-(cyclopropylmethoxy)-N-[2-(5-methyl-1,2,4-oxadiazol-3-yl)propan-2-yl]benzamide], the values for the EC50 on human CB1 receptors and at human CB2 receptors (setting [1]) were over 10 µM and 0.122 µM, respectively.

On to `CC(C)C[C@H](NC(=O)c1ccc(C2CC2)c(OCC2CC2)c1)C(N)=O` [Example 4, N^2-[4-Cyclopropyl-3-(cyclopropylmethoxy)benzoyl]-L-leucinamide], for which the results for the EC50 on human CB1 receptors and on human CB2 receptors were over 10 µM and 0.018 µM, respectively.

Turning to `CC(C)(CO)NC(=O)c1ccc(C2CC2)c(OCC2CC2)c1` [Example 5, 4-Cyclopropyl-3-(cyclopropylmethoxy)-N-(1-hydroxy-2-methylpropan-2-yl)benzamide], the concentration for a half-maximal effect (EC50) was over 10 µM on human CB1 receptors and 0.13 µM at human CB2 receptors (setting [1]).

With `CC(C)(NC(=O)c1ccc(C2CC2)c(OCC2CC2)c1)c1nccs1` [Example 6, 4-Cyclopropyl-3-(cyclopropylmethoxy)-N-[2-(1,3-thiazol-2-yl)propan-2-yl]benzamide], the results for the EC50 at human CB1 receptors and at human CB2 receptors were 0.539 µM and 0.026 µM, respectively.

Consider `CCOC(=O)C(CC)(CC)NC(=O)c1ccc(C2CC2)c(OCC2CC2)c1` [Example 7, Ethyl 2-[4-cyclopropyl-3-(cyclopropylmethoxy)benzamido]-2-ethylbutanoate], for which the EC50 on human CB1 receptors is over 10 µM; at human CB2 receptors, 0.00144 µM.

`CCC(CC)(NC(=O)c1ccc(C2CC2)c(OCC2CC2)c1)C(=O)O` [Example 8, 2-[4-Cyclopropyl-3-(cyclopropylmethoxy)benzamido]-2-ethylbutanoic acid]: the EC50 is over 10 µM at human CB1 receptors and 2.17 µM on human CB2 receptors (setting [1]).

With `CCC(CC)(NC(=O)c1ccc(C2CC2)c(OCC2CC2)c1)C(=O)N1CC(F)(F)C1` [Example 9, 4-Cyclopropyl-3-(cyclopropylmethoxy)-N-[3-(3,3-difluoroazetidine-1-carbonyl)pentan-3-yl]benzamide], the EC50 is over 10 µM at human CB1 receptors and 0.00756 µM on human CB2 receptors.

Take `Cc1nc(C(C)(C)NC(=O)c2ccc(N3CC(F)(F)C3)c(OCC3CC3)c2)no1` [Example 10, 3-(Cyclopropylmethoxy)-4-(3,3-difluoroazetidin-1-yl)-N-[2-(5-methyl-1,2,4-oxadiazol-3-yl)propan-2-yl]benzamide]: the values for the EC50 on human CB1 receptors and at human CB2 receptors were over 10 µM and 0.0329 µM, respectively.

`CC(C)(NC(=O)c1ccc(N2CC(F)(F)C2)c(OCC2CC2)c1)c1noc(N)n1` [Example 11, N-[2-(5-Amino-1,2,4-oxadiazol-3-yl)propan-2-yl]-3-(cyclopropylmethoxy)-4-(3,3-difluoroazetidin-1-yl)benzamide]: the EC50 is over 10 µM on human CB1 receptors and 0.0987 µM at human CB2 receptors.

Turning to `CNC(=O)[C@H](CC(C)C)NC(=O)c1ccc(N2CC(F)(F)C2)c(OCC2CC2)c1` [Example 12, N^2-[3-(cyclopropylmethoxy)-4-(3,3-difluoroazetidin-1-yl)benzoyl]-N-methyl-L-leucinamide], the EC50 at human CB1 receptors was over 10 µM; on human CB2 receptors, 0.0664 µM.

For the compound `CC(C)C[C@@H](CO)NC(=O)c1ccc(N2CC(F)(F)C2)c(OCC2CC2)c1` [Example 13, 3-(Cyclopropylmethoxy)-4-(3,3-difluoroazetidin-1-yl)-N-[(2S)-1-hydroxy-4-methylpentan-2-yl]benzamide], the EC50 was over 10 µM at human CB1 receptors and 0.0218 µM at human CB2 receptors.

For the compound `CC(C)(C)c1noc(-c2ccc(C3CC3)c(OCC3CC3)c2)n1` [Example 14, 3-tert-Butyl-5-[4-cyclopropyl-3-(cyclopropylmethoxy)phenyl]-1,2,4-oxadiazole], the EC50 at human CB1 receptors was over 10 µM; on human CB2 receptors it was 0.0233 µM.

`NC(=O)CC1(NC(=O)c2ccc(C3CC3)c(OCC3CC3)c2)COC1` [Example 15, N-[3-(2-Amino-2-oxoethyl)oxetan-3-yl]-4-cyclopropyl-3-(cyclopropylmethoxy)benzamide]: the results for the EC50 at human CB1 receptors and at human CB2 receptors were over 10 µM and 0.0341 µM, respectively.

As to `NC(=O)CC1(NC(=O)c2ccc(C3CC3)c(OCC3CC3)c2)CS(=O)(=O)C1` [Example 16, N-[3-(2-Amino-2-oxoethyl)-1,1-dioxothietan-3-yl]-4-cyclopropyl-3-(cyclopropylmethoxy)benzamide], the EC50 at human CB1 receptors is over 10 µM; at human CB2 receptors it was 0.00265 µM.

Turning to `NC(=O)[C@@H]1CC(F)(F)CN1C(=O)c1ccc(C2CC2)c(OCC2CC2)c1` [Example 17, 1-[4-Cyclopropyl-3-(cyclopropylmethoxy)benzoyl]-4,4-difluoro-L-prolinamide], the EC50 at human CB1 receptors is over 10 µM; on human CB2 receptors, 0.00051 µM.

For `CCC(CC)(NC(=O)c1ccc(C2CC2)c(OCC2CC2)c1)C(N)=O` [Example 18, N-(3-Carbamoylpentan-3-yl)-4-cyclopropyl-3-(cyclopropylmethoxy)benzamide], the EC50 at human CB1 receptors is over 10 µM; at human CB2 receptors (setting [1]) it was 0.233 µM.

Take `CNC(=O)[C@H](CC(C)C)NC(=O)c1ccc(C2CC2)c(OCC2CC2)c1` [Example 19, N^2-[4-cyclopropyl-3-(cyclopropylmethoxy)benzoyl]-N-methyl-L-leucinamide]: the EC50 is over 10 µM on human CB1 receptors and 0.0196 µM on human CB2 receptors.

Turning to `Cc1nc([C@@](C)(CS(C)(=O)=O)NC(=O)c2ccc(C3CC3)c(OCC3CC3)c2)no1` [Example 20, 4-Cyclopropyl-3-(cyclopropylmethoxy)-N-[(2S)-1-(methanesulfonyl)-2-(5-methyl-1,2,4-oxadiazol-3-yl)propan-2-yl]benzamide], the EC50 was over 10 µM at human CB1 receptors and 0.0313 µM at human CB2 receptors.

As to `Cc1nc([C@](C)(CS(C)(=O)=O)NC(=O)c2ccc(C3CC3)c(OCC3CC3)c2)no1` [Example 21, 4-Cyclopropyl-3-(cyclopropylmethoxy)-N-[(2R)-1-(methanesulfonyl)-2-(5-methyl-1,2,4-oxadiazol-3-yl)propan-2-yl]benzamide], the EC50 at human CB1 receptors is over 10 µM; at human CB2 receptors, 0.297 µM.
